From US9388208B2, “Pyrrolo[1,2-f][1,2,4]triazines useful for treating respiratory syncitial virus infections” (Gilead Sciences, Inc., priority 2013, dated 2016)
Like-named read-outs stand apart in the source and are kept apart here.

Assays:
[1] = target: T1, RSV ribonucleoprotein (RNP) complexes (Human respiratory syncytial virus A, UniProt P28887); assay: RSV RNP assay (inhibition of RSV RNP transcription); format: biochemical, RSV A2; conditions: 90 minute incubation at 30° C., total radiolabeled transcripts
T1 construct: The supernatant (S3) fraction, containing the enriched RSV RNP complexes, was collected; endogenous in cells; host or cells: HEp-2 cells infected with RSV A2; detergent-extracted crude S3 fraction
Method: RSV ribonucleoprotein (RNP) complexes were prepared from a method modified from Mason at al (1). HEp-2 cells were plated at a density of 7.1×10^4 cells/cm^2 in MEM+10% fetal bovine serum (FBS) and allowed to attach overnight at 37° C. (5% CO2). Following attachment, the cells were infected with RSV A2 (M01=5) in 35 mL MEM+2% FBS. At 20 hours post-infection, the media was replaced with MEM+2% FBS supplemented with 2 μg/mL actinomycin D and returned to 37° C. for one hour. The cells were then washed once with PBS and treated with 35 mL of PBS+250 μg/mL lyso-lecithin for one minute, after which all liquid was aspirated. The cells were harvested by scrapping them into 1.2 mL of buffer A [50 mM TRIS acetate (pH 8.0), 100 mM potassium acetate, 1 mM DTT and 2 μg/mL actinomycin D] and lysed by repeated passage through an 18 gauge needle (10 times). The cell lysate was placed in ice for 10 minutes and then centrifuged at 2400g for 10 minutes at 4° C. The supernatant (S1) was removed and the pellet (P1) was disrupted in 600 uL of Buffer B [10 mM TRIS acetate (pH 8.0), 10 mM potassium acetate and 1.5 mM MgCl2] supplemented with 1% Triton X-100 by repeated passage through an 18 gauge needle (10 times). The resuspended pellet was placed in ice for 10 minutes and then centrifuged at 2400g for 10 minutes at 4° C. The supernatant (S2) was removed and the pellet (P2) was disrupted in 600 uL of Buffer B supplemented with 0.5% deoxycholate and 0.1% Tween 40. The resuspended pellet was placed in ice for 10 minutes and then centrifuged at 2400g for 10 minutes at 4° C. The supernatant (S3) fraction, containing the enriched RSV RNP complexes, was collected and the protein concentration determined by UV absorbance at 280 nm. Aliquoted RSV RNP S3 fractions were stored at −80° C.
Transcription reactions contained 25 μg of crude RSV RNP complexes in 30 μL of reaction buffer [50 mM TRIS-acetate (pH 8.0), 120 mM potassium acetate, 5% glycerol, 4.5 mM MgCl2, 3 mM DTT, 2 mM ethyleneglycol-bis(2-aminoethylether)-tetraacetic acid (EGTA), 50 μg/mL BSA, 2.5 U RNasin (Promega), ATP, GTP, UTP, CTP and 1.5 uCi [α-^32P] NTP (3000 Ci/mmol)]. The radiolabeled nucleotide used in the transcription assay was selected to match the nucleotide analog being evaluated for inhibition of RSV RNP transcription. Cold, competitive NTP was added at a final concentration of one-half its Km (ATP=20 μM, GTP=12.5 μM, UTP=6 μM and CTP=2 μM). The three remaining nucleotides were added at a final concentration of 100 μM.
To determine whether nucleotide analogs inhibited RSV RNP transcription, compounds were added using a 6 step serial dilution in 5-fold increments. Following a 90 minute incubation at 30° C., the RNP reactions were stopped with 350 μL of Qiagen RLT lysis buffer and the RNA was purified using a Qiagen RNeasy 96 kit. Purified RNA was denatured in RNA sample loading buffer (Sigma) at 65° C. for 10 minutes and run on a 1.2% agarose/MOPS gel containing 2M formaldehyde. The agarose gel was dried and exposed to a Storm phosphorimager screen and developed using a Storm phosphorimager (GE Healthcare). The concentration of compound that reduced total radiolabeled transcripts by 50% (IC50) was calculated by non-linear regression analysis of two replicates.

RSV strain A2 = assay: Anti-RSV activity, infectious cytopathic cell protection assay in HEp-2 cells; format: cell-based, Respiratory Syncytial Virus (RSV); conditions: human respiratory syncytial virus
Method: Antiviral activity against RSV is determined using an infectious cytopathic cell protection assay in HEp-2 cells. In this assay, compounds inhibiting viral infection and/or replication produce a cytoprotective effect against the virus-induced cell killing that can be quantified using a cell viability reagent. The techniques used here are novel adaptations of methods described in published literature (Chapman et al., Antimicrob Agents Chemother. 2007, 51(9):3346-53.)
HEp-2 cells are obtained from ATCC (Manassas, VI) and maintained in MEM media supplemented with 10% fetal bovine serum and penicillin/streptomycin. Cells are passaged twice a week and kept at subconfluent stage. Commercial stock of RSV strain A2 (Advanced Biotechnologies, Columbia, Md.) is titered before compound testing to determine the appropriate dilution of the virus stock that generates desirable cytopathic effect in HEp-2 cells.
For antiviral tests, HEp-2 cells are grown in large cell culture flasks to near confluency but not fully so. The compounds to be tested are prediluted in DMSO in 384-well compound dilution plates, either in an 8 or 40 sample per plate standardized dose response format. 3-fold serial dilution increments of each test compound are prepared in the plates and test samples are transferred via acoustic transfer apparatus (Echo, Labcyte) at 100 nl per well into cell culture assay 384-well plates. Each compound dilution is transferred in single or quadruplicate samples into dry assay plates, which are stored until assay is ready to go. The positive and negative controls are laid out in opposite on ends of the plate in vertical blocks (1 column).
Subsequently, an infectious mixture is prepared using an appropriate dilution of virus stock previously determined by titration with cells at a density of 50,000/ml and 20 uL/well is added to test plates w/compounds via automation (uFlow, Biotek). Each plate includes negative and positive controls (16 replicates each) to create 0% and 100% virus inhibition standards, respectively. Following the infection with RSV, testing plates are incubated for 4 days in a 37° C. cell culture incubator. After the incubation, a cell viability reagent, Cell TiterGlo (Promega, Madison, Wis.) is added to the assay plates, which are incubated briefly, and a luminescent readout is measured (Envision, Perkin Elmer) in all the assay plates. The RSV-induced cytopathic effect, percentage inhibition, is determined from the levels of remaining cell viability. These numbers are calculated for each tested concentration relative to the 0% and 100% inhibition controls, and the EC50 value for each compound is determined by non-linear regression as a concentration inhibiting the RSV-induced cytopathic effect by 50%. Various potent anti-RSV tool compounds are used as positive controls for antiviral activity.

[2] = Cytotoxicity assay in HEp-2 cells; format: cell-based; conditions: human, uninfected HEp-2 cells, CellTiter Glo
Method: Cytotoxicity of tested compounds is determined in uninfected HEp-2 cells in parallel with the antiviral activity using the cell viability reagent in a similar fashion as described before for other cell types (Cihlar et al., Antimicrob Agents Chemother. 2008, 52(2):655-65.). The same protocol as for the determination of antiviral activity is used for the measurement of compound cytotoxicity except that the cells are not infected with RSV. Instead, an uninfected cell mixture at the same density is added at 20 ul/well to plates containing prediluted compounds, also at 100 nl/sample. Assay plates are then incubated for 4 days followed by a cell viability test using the same CellTiter Glo reagent addition and measurement of luminescent readouts. Untreated cell and cells treated at 2 uM puromycin (Sigma, St. Louis, Mo.) serve as 100% and 0% cell viability control, respectively. The percent of cell viability is calculated for each tested compound concentration relative to the 0% and 100% controls and the CC50 value is determined by non-linear regression as a compound concentration reducing the cell viability by 50%.

[3] = Cytotoxicity assay in MT-4 cells; format: cell-based; conditions: human, Cell-Titer Glo
Method: The MT-4 cell line was obtained from the NIH AIDS Research and Reference Reagent Program (Germantown, Md.) and cultured in RPMI-1640 medium (Irvine Scientific, Santa Ana, Calif., Cat #9160) supplemented with 10% FBS, 100 units/mL penicillin, 100 units/mL streptomycin, and 2 mM L-Glutamine. The MT-4 cells were passaged twice per week to maintain cell densities below 0.6×10^6 cells/mL. Complete RPMI-1640 media containing 100× concentrations of 3-fold serially diluted compound, ranging from 26 nM to 530 μM, were stamped in quadruplicate into black 384-well plates. After compound addition, 2×10^3 MT-4 cells were added to each well using a MicroFlo liquid dispenser (BioTek, Winooski, Vt.) and the cells were cultured for 5 days at 37° C. in a 5% CO2 incubator. Following the incubation the cells were allowed to equilibrate to 25° C. and cell viability was determined by adding 25 μL of Cell-Titer Glo viability reagent. The mixture was incubated for 10 minutes at 25° C., and the luminescence signal was quantified on a Victor Luminescence plate reader. The CC50 value is defined as the concentration of compound that reduces cell viability by 50% as determined by the Cell-Titer Glo signal. The data were analyzed using Pipeline Pilot Plate Data Analytics Collection software (Version 7.0, Accelrys, San Diego, Calif.). CC50 values were calculated from a non-linear regression analysis using a 4-parameter sigmoidal dose-response equation: Y=Bottom+(Top−Bottom)/(1+10^[(Log CC50−X)*HillSlope]) where the Top and Bottom were fixed at 100% and 0% cell viability, respectively. CC50 values were calculated as the average±standard deviation of 3 independent experiments.

[4] = 96 h, HEp-2 cells infected with RSV A2, 4 days, Cell TiterGlo, read-out: EC50

T1 sequence (P28887 whole entry): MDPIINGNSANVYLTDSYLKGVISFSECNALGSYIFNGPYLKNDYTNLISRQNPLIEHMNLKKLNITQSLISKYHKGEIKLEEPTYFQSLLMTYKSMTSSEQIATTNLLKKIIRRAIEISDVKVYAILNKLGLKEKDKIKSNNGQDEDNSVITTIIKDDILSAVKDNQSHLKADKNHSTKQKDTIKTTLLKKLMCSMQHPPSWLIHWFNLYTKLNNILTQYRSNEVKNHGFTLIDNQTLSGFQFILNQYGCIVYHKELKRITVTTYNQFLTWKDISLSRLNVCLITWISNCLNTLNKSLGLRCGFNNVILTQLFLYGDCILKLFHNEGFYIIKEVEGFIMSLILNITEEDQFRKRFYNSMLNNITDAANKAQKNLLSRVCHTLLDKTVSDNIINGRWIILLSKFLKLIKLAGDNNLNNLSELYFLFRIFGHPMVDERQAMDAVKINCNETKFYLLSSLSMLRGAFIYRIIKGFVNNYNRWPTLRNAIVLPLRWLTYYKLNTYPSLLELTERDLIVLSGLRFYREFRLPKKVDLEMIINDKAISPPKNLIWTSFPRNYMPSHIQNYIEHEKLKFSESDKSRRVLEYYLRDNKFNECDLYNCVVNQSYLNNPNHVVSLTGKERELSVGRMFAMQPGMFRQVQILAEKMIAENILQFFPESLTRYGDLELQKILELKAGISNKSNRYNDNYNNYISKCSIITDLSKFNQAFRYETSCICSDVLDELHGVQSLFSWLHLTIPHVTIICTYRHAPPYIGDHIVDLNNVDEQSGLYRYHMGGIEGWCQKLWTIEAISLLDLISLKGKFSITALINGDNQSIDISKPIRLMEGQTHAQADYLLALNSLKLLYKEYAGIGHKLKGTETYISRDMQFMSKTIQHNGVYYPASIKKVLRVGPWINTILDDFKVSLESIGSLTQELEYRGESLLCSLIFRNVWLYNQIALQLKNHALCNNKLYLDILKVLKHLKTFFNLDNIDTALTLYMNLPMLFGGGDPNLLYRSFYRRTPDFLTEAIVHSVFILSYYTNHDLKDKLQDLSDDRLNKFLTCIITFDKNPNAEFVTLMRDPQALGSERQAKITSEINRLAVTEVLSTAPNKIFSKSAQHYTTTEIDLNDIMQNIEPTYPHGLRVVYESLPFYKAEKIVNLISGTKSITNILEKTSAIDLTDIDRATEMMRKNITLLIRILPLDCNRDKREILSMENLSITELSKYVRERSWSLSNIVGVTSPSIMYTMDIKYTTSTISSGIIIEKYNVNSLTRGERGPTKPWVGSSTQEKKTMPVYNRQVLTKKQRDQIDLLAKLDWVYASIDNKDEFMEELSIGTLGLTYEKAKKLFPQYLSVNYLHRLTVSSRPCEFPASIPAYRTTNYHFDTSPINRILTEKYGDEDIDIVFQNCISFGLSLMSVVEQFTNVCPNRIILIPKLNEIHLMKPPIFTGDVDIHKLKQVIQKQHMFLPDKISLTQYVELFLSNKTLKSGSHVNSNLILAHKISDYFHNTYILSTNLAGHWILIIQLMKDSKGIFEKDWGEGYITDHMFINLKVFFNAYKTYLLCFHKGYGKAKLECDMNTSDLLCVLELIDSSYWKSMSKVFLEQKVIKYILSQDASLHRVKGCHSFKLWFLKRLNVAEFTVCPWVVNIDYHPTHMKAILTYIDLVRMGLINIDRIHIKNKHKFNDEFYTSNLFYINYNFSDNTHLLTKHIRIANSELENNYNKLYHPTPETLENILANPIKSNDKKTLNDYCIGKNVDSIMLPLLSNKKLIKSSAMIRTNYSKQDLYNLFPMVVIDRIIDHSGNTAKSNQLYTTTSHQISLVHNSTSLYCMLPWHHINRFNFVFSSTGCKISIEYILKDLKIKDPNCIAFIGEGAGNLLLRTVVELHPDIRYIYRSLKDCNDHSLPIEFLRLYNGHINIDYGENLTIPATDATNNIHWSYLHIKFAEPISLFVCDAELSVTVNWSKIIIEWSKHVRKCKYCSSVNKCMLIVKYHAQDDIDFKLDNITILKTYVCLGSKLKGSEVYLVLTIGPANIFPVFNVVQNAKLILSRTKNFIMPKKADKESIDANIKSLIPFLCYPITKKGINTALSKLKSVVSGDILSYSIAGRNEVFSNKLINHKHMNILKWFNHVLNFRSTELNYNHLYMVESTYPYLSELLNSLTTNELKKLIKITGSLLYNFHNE
T1 sequence (P03421 whole entry, further chain): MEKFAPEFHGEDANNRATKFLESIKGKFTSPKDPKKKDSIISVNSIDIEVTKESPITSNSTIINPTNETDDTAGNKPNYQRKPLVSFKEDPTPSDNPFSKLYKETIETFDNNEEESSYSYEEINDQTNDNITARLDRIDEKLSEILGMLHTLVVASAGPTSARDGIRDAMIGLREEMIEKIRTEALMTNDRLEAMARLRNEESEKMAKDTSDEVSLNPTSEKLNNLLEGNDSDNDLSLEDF

C[C@@]1(O)[C@H](O)[C@@H](COP(=O)(O)OP(=O)(O)OP(=O)(O)O)O[C@H]1c1ccc2c(N)ncnn12 [((2R,3R,4R,5S)-5-(4-aminopyrrolo[2,1-f][1,2,4]triazin-7-yl)-3,4-dihydroxy-4-methyltetrahydrofuran-2-yl)methyl tetrahydrogen triphosphate, reference compound]
IC50 [1]: 8.5 µM

C[C@@]1(F)[C@H](O)[C@@H](COP(=O)(O)OP(=O)(O)OP(=O)(O)O)O[C@H]1c1ccc2c(N)ncnn12 [((2R,3R,4R,5S)-5-(4-aminopyrrolo[2,1-f][1,2,4]triazin-7-yl)-4-fluoro-3-hydroxy-4-methyltetrahydrofuran-2-yl)methyl tetrahydrogen triphosphate, reference compound]
IC50 [1]: > 100 µM

N#C[C@]1(COP(=O)(O)OP(=O)(O)OP(=O)(O)O)O[C@@H](c2ccc3c(N)ncnn23)[C@H](F)[C@@H]1O [Example 6, ((2R,3R,4R,5S)-5-(4-aminopyrrolo[1,2-f][1,2,4]triazin-7-yl)-2-cyano-4-fluoro-3-hydroxytetrahydrofuran-2-yl)methyl tetrahydrogen triphosphate]
IC50 [1]: 0.086 µM

C#C[C@]1(COP(=O)(O)OP(=O)(O)OP(=O)(O)O)O[C@@H](c2ccc3c(N)ncnn23)[C@H](F)[C@@H]1O [Example 7, ((2R,3R,4R,5S)-5-(4-aminopyrrolo[1,24][1,2,4]triazin-7-yl)-2-ethynyl-4-fluoro-3-hydroxytetrahydrofuran-2-yl)methyl tetrahydrogen triphosphate]
IC50 [1]: 1 µM

N#C[C@]1(COP(=O)(O)OP(=O)(O)OP(=O)(O)O)O[C@@H](c2ccc3c(N)ncnn23)[C@H](O)[C@@H]1O [Example 8, ((2R,3S,4R,5S)-5-(4-aminopyrrolo[1,2-f][1,2,4]triazin-7-yl)-2-cyano-3,4-dihydroxytetrahydrofuran-2-yl)methyl tetrahydrogen triphosphate]
IC50 [1]: 0.025 µM

[N-]=[N+]=N[C@]1(COP(=O)(O)OP(=O)(O)OP(=O)(O)O)O[C@@H](c2ccc3c(N)ncnn23)[C@H](O)[C@@H]1O [Example 9, ((2R,3S,4R,5S)-5-(4-aminopyrrolo[2,1-f][1,2,4]triazin-7-yl)-2-azido-3,4-dihydroxytetrahydrofuran-2-yl)methyl tetrahydrogen triphosphate]
IC50 [1]: 0.12 µM

C[C@]1(CO)O[C@@H](c2ccc3c(N)ncnn23)[C@H](F)[C@@H]1O [Example 24, (2R,3R,4R,5S)-5-(4-aminopyrrolo[2,1-f][1,2,4]triazin-7-yl)-4-fluoro-2-(hydroxymethyl)-2-methyltetrahydrofuran-3-ol]
EC50 (RSV strain A2; [4]): 1 µM | EC50 (RSV strain A2; HEp-2 anti-RSV activity, read-out: EC50 (HEp-2 anti-RSV activity)): < 100 µM | CC50 at 4 days [2]: > 100 µM | CC50 at 5 days [3]: 11 µM

N#C[C@]1(CO)O[C@@H](c2cc(F)c3c(N)ncnn23)[C@H](O)[C@@H]1O [Example 25, (2R,3S,4R,5S)-5-(4-amino-5-fluoropyrrolo[2,1-f][1,2,4]triazin-7-yl)-3,4-dihydroxy-2-(hydroxymethyl)tetrahydrofuran-2-carbonitrile]
EC50 (RSV strain A2; [4]): 9.2 µM | CC50 at 4 days [2]: > 100 µM | CC50 at 5 days [3]: > 93 µM

CCOC(=O)[C@H](C)NP(=O)(OC[C@@]1(C#N)O[C@@H](c2ccc3c(N)ncnn23)[C@H](O)[C@@H]1O)Oc1ccccc1 (stereo partly drawn) [Example 35, (2S)-ethyl 2-(((((2R,3S,4R,5S)-5-(4-aminopyrrolo[2,1-f][1,2,4]triazin-7-yl)-2-cyano-3,4-dihydroxytetrahydrofuran-2-yl)methoxy)(phenoxy)phosphoryl)amino) propanoate]
EC50 (RSV strain A2; HEp-2, 96 h): 0.34 µM | CC50 at 4 days [2]: > 50 µM | CC50 at 5 days [3]: 47 µM
